Data published in the supplement of paper PMC10307832.

Assays:
Experiment in all cases: relative viability (nuclei count vs DMSO), 5 days (fraction); higher = more cells survive
[1] = system: ABC-1
How it was run: (§1)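 Each reported value is a median over duplicate plates. It expresses relative viability: treated-well nuclei count divided by vehicle-well nuclei count. Lung cancer cell lines in 1536-well plates were dosed by pin tool a day after seeding, alone with one drug or with a fixed anchor-drug dose plus five library-drug doses (not always all listed) in √10 steps, and nuclei were counted after 5 days.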

[2] = system: CAL-12T
How it was run: as §1

[3] = system: ChaGo-K-1
How it was run: as §1

[4] = system: EPLC-272H
How it was run: as §1

[5] = system: HCC-366
How it was run: as §1

[6] = system: HCC-78
How it was run: as §1

[7] = system: LC-2-ad
How it was run: as §1

[8] = system: LOU-NH91
How it was run: as §1

[9] = system: LU99A
How it was run: as §1

[10] = system: NCI-H1395
How it was run: as §1

[11] = system: NCI-H1651
How it was run: as §1

[12] = system: NCI-H1734
How it was run: as §1

[13] = system: NCI-H1755
How it was run: as §1

[14] = system: NCI-H1793
How it was run: as §1

[15] = system: NCI-H1944
How it was run: as §1

[16] = system: NCI-H2087
How it was run: as §1

[17] = system: NCI-H2170
How it was run: as §1

[18] = system: NCI-H2228
How it was run: as §1

[19] = system: NCI-H2405
How it was run: as §1

[20] = system: NCI-H3122
How it was run: as §1

[21] = system: NCI-H460
How it was run: as §1

[22] = system: PC-3 [JPC-3]
How it was run: as §1

[23] = system: RERF-LC-KJ
How it was run: as §1

[24] = system: UMC-11
How it was run: as §1

Compound `Clc1ccc(Nc2nnc(Cc3ccncc3)c3ccccc23)cc1` [Vatalanib] + O=C(CCCCCCC(=O)Nc1ccccc1)NO [Vorinostat] (partner 1 µM) has a relative viability ([1]; first compound 0.04 µM) of 1.06, a relative viability ([1]; first compound 0.1265 µM) of 0.863 and a relative viability ([1]; first compound 0.4 µM) of 1.01. It also gave a relative viability ([1]; first compound 4 µM) of 1.39, a relative viability ([2]; first compound 0.04 µM) of 0.872 and a relative viability ([2]; first compound 0.1265 µM) of 0.714. It also gave a relative viability ([2]; first compound 0.4 µM) of 0.734, a relative viability ([2]; first compound 1.265 µM) of 0.737 and a relative viability ([2]; first compound 4 µM) of 0.784. The relative viability ([3]; first compound 0.04 µM) was 0.787, the relative viability ([3]; first compound 0.1265 µM) was 0.758 and the relative viability ([3]; first compound 0.4 µM) was 0.848. The relative viability ([3]; first compound 1.265 µM) was 0.766, the relative viability ([3]; first compound 4 µM) was 0.788 and the relative viability ([4]; first compound 0.04 µM) was 0.438. It also gave a relative viability ([4]; first compound 0.1265 µM) of 0.702, a relative viability ([4]; first compound 0.4 µM) of 0.499 and a relative viability ([4]; first compound 1.265 µM) of 0.617. For the same compound, the relative viability ([4]; first compound 4 µM) was 0.561, the relative viability ([5]; first compound 0.04 µM) was 0.361 and the relative viability ([5]; first compound 0.1265 µM) was 0.434. The relative viability ([5]; first compound 0.4 µM) was 0.451, the relative viability ([5]; first compound 1.265 µM) was 0.254 and the relative viability ([5]; first compound 4 µM) was 0.394. For the same compound, the relative viability ([6]; first compound 0.04 µM) was 0.425, the relative viability ([6]; first compound 0.1265 µM) was 0.478 and the relative viability ([6]; first compound 0.4 µM) was 0.49. For the same compound, the relative viability ([6]; first compound 1.265 µM) was 0.465, the relative viability ([6]; first compound 4 µM) was 0.424 and the relative viability ([7]; first compound 0.04 µM) was 0.695. For the same compound, the relative viability ([7]; first compound 0.1265 µM) was 0.743, the relative viability ([7]; first compound 0.4 µM) was 0.768 and the relative viability ([7]; first compound 1.265 µM) was 0.682. It also gave a relative viability ([7]; first compound 4 µM) of 0.676, a relative viability ([8]; first compound 0.04 µM) of 0.939 and a relative viability ([8]; first compound 0.1265 µM) of 0.874. For the same compound, the relative viability ([8]; first compound 0.4 µM) was 0.955, the relative viability ([8]; first compound 1.265 µM) was 0.783 and the relative viability ([8]; first compound 4 µM) was 0.882. The relative viability ([9]; first compound 0.04 µM) was 0.554, the relative viability ([9]; first compound 0.1265 µM) was 0.544 and the relative viability ([9]; first compound 0.4 µM) was 0.535. For the same compound, the relative viability ([9]; first compound 1.265 µM) was 0.472, the relative viability ([9]; first compound 4 µM) was 0.467 and the relative viability ([10]; first compound 0.04 µM) was 0.71. It also gave a relative viability ([10]; first compound 0.1265 µM) of 0.55, a relative viability ([10]; first compound 0.4 µM) of 0.6 and a relative viability ([10]; first compound 4 µM) of 0.726. The relative viability ([11]; first compound 0.04 µM) was 0.506, the relative viability ([11]; first compound 0.1265 µM) was 0.606 and the relative viability ([11]; first compound 0.4 µM) was 0.594. For the same compound, the relative viability ([11]; first compound 1.265 µM) was 0.524, the relative viability ([11]; first compound 4 µM) was 0.557 and the relative viability ([12]; first compound 0.04 µM) was 0.804. It also gave a relative viability ([12]; first compound 0.1265 µM) of 0.812, a relative viability ([12]; first compound 0.4 µM) of 0.937 and a relative viability ([12]; first compound 1.265 µM) of 0.761. The relative viability ([12]; first compound 4 µM) was 0.775, the relative viability ([13]; first compound 0.04 µM) was 0.799 and the relative viability ([13]; first compound 0.1265 µM) was 0.891. The relative viability ([13]; first compound 0.4 µM) was 0.757, the relative viability ([13]; first compound 1.265 µM) was 0.759 and the relative viability ([13]; first compound 4 µM) was 0.694. The relative viability ([14]; first compound 0.04 µM) was 0.767, the relative viability ([14]; first compound 0.1265 µM) was 0.845 and the relative viability ([14]; first compound 0.4 µM) was 0.97. For the same compound, the relative viability ([14]; first compound 1.265 µM) was 0.66, the relative viability ([14]; first compound 4 µM) was 0.71 and the relative viability ([15]; first compound 0.04 µM) was 0.546. It also gave a relative viability ([15]; first compound 0.1265 µM) of 0.523, a relative viability ([15]; first compound 0.4 µM) of 0.676 and a relative viability ([15]; first compound 1.265 µM) of 0.529. The relative viability ([15]; first compound 4 µM) was 0.526, the relative viability ([16]; first compound 0.04 µM) was 0.836 and the relative viability ([16]; first compound 0.1265 µM) was 0.6. For the same compound, the relative viability ([16]; first compound 0.4 µM) was 0.595, the relative viability ([16]; first compound 1.265 µM) was 0.701 and the relative viability ([16]; first compound 4 µM) was 0.533. For the same compound, the relative viability ([17]; first compound 0.04 µM) was 0.858, the relative viability ([17]; first compound 0.1265 µM) was 0.853 and the relative viability ([17]; first compound 0.4 µM) was 0.825. The relative viability ([17]; first compound 1.265 µM) was 0.743, the relative viability ([17]; first compound 4 µM) was 0.764 and the relative viability ([18]; first compound 0.04 µM) was 0.795. The relative viability ([18]; first compound 0.1265 µM) was 0.589, the relative viability ([18]; first compound 0.4 µM) was 0.653 and the relative viability ([18]; first compound 1.265 µM) was 0.723. For the same compound, the relative viability ([18]; first compound 4 µM) was 0.751, the relative viability ([19]; first compound 0.04 µM) was 1.09 and the relative viability ([19]; first compound 0.1265 µM) was 0.938. It also gave a relative viability ([19]; first compound 0.4 µM) of 1.06, a relative viability ([19]; first compound 4 µM) of 0.976 and a relative viability ([20]; first compound 0.04 µM) of 1.27. It also gave a relative viability ([20]; first compound 0.1265 µM) of 0.99, a relative viability ([20]; first compound 0.4 µM) of 0.96 and a relative viability ([20]; first compound 1.265 µM) of 1.01. For the same compound, the relative viability ([20]; first compound 4 µM) was 1.12, the relative viability ([21]; first compound 0.04 µM) was 0.859 and the relative viability ([21]; first compound 0.1265 µM) was 0.636. For the same compound, the relative viability ([21]; first compound 0.4 µM) was 0.765, the relative viability ([21]; first compound 1.265 µM) was 0.702 and the relative viability ([21]; first compound 4 µM) was 0.61. It also gave a relative viability ([22]; first compound 0.04 µM) of 0.837, a relative viability ([22]; first compound 0.1265 µM) of 0.736 and a relative viability ([22]; first compound 0.4 µM) of 0.721. It also gave a relative viability ([22]; first compound 1.265 µM) of 0.342, a relative viability ([22]; first compound 4 µM) of 0.688 and a relative viability ([23]; first compound 0.04 µM) of 0.714. It also gave a relative viability ([23]; first compound 0.1265 µM) of 0.747, a relative viability ([23]; first compound 0.4 µM) of 0.69 and a relative viability ([23]; first compound 1.265 µM) of 0.665. It also gave a relative viability ([23]; first compound 4 µM) of 0.651, a relative viability ([24]; first compound 0.04 µM) of 0.361 and a relative viability ([24]; first compound 0.1265 µM) of 0.469. It also gave a relative viability ([24]; first compound 0.4 µM) of 0.384, a relative viability ([24]; first compound 1.265 µM) of 0.35 and a relative viability ([24]; first compound 4 µM) of 0.415.
